The structures appear in SMILES notation.

A short description of this experiment: Compound was tested for inhibitory activity against type II Phospholipase A2 (PLA2) isolated from japanese mamushi (Agkistrodon halys blomhoffii) venom.
Broadly, the IC50 is the concentration that inhibits the measured activity by half. `CCCCCCCCCCCC(=O)N1C(=O)O[C@@H](COP(=O)([O-])OCC[N+](C)(C)C)[C@@H]1CCC` [{2-[((4S,5S)-3-Dodecanoyl-2-oxo-4-propyl-oxazolidin-5-ylmethoxy)-hydroxy-phosphoryloxy]-ethyl}-trimethyl-ammonium] registered an IC50 of 40.1 µM.
In the case of `CCCCCCCCCCCC(=O)N1C(=O)O[C@H](COP(=O)([O-])OCC[N+](C)(C)C)[C@H]1CCC` [{2-[((4R,5S)-3-Dodecanoyl-2-oxo-4-propyl-oxazolidin-5-ylmethoxy)-hydroxy-phosphoryloxy]-ethyl}-trimethyl-ammonium], half-maximal inhibition (IC50) required 19.8 µM.
The same measure for `CCCCCCCCCCCC(=O)N1C(=O)OC[C@@H]1COP(=O)([O-])OCC[N+](C)(C)C` [{2-[((R)-3-Dodecanoyl-2-oxo-oxazolidin-4-ylmethoxy)-hydroxy-phosphoryloxy]-ethyl}-trimethyl-ammonium]: 31.3 µM; for `CCCCCCCCCCCC(=O)N[C@H](CCCC)COP(=O)([O-])OCC[N+](C)(C)C` [(2-{[2-((S)-Dodecanoylamino)-hexyloxy]-hydroxy-phosphoryloxy}-ethyl)-trimethyl-ammonium]: 5.3 µM; for `CCCCCCCCCCCC(=O)N1C(=O)O[C@H](COP(=O)([O-])OCC[N+](C)(C)C)[C@@H]1CCC` [{2-[((4S,5R)-3-Dodecanoyl-2-oxo-4-propyl-oxazolidin-5-ylmethoxy)-hydroxy-phosphoryloxy]-ethyl}-trimethyl-ammonium]: 52.9 µM.
Next, `CCCCCCCCCCCC(=O)N1C(=O)O[C@@H](COP(=O)([O-])OCC[N+](C)(C)C)[C@H]1CCC` [{2-[((4R,5S)-3-Dodecanoyl-2-oxo-4-propyl-oxazolidin-5-ylmethoxy)-hydroxy-phosphoryloxy]-ethyl}-trimethyl-ammonium]: 45.8 µM.

The values above are taken from BindingDB's records for doi:10.1016/s0960-894x(98)00641-6 (Kwansei Gakuin University, 1999).
